The values below come from EPA's ToxValDB 9.5 (doi:10.2903/j.efsa.2005.43r).

≈ marks a conversion by molar mass, not a printed value.

One data set has as its system Mesograpta sp. In words: LR50; higher = less toxic. Conditions: chronic/long-term, mortality.
The subject of another data set is Apis mellifera. The following applies: acute, duration: 24 hours, mortality.
A further data set concerns Daphnia magna. The following applies: chronic/long-term; duration: 21 days; reproduction.
The next data set relates to Colinus virginianus. Conditions: acute, oral, mortality.
A further data set relates to Pimephales promelas. The following applies: chronic/long-term; duration: 36 days.
Another data set deals with Anas platyrhynchos. The following applies: reproductive.
Another data set relates to Canidae. The following applies: chronic; duration: 1 years; oral; Dog Other; hematological.
A further data set deals with Tagia sp. Conditions: acute; duration: 14 days; mortality.
In a further data set the test system is Oncorhynchus mykiss. The following applies: acute; duration: 96 hours; mortality.

Usually NOAEL stands for the highest tested level that showed no adverse finding.

In the case of `Cc1nc(N(C)C)nc(OC(=O)N(C)C)c1C` [Pirimicarb], the LR50 with Mesograpta sp. (duration: 16 days) and in the data set on Mesograpta sp. (duration: 28 days) was 14.6 g/ha each time. Also, the LD50 with Apis mellifera (dermal) turned out to be 53.1 µg/piece; with Apis mellifera (oral, unspecified) it was 4 µg/piece; in the data set on Colinus virginianus (gavage) it was 20.9 mg/kg; in the data set on Rattus norvegicus (acute, oral, F, mortality), 142 mg/kg. Further, the NOEC in the data set with Daphnia magna was 0.0009 mg/L; in the data set on Pimephales promelas it was 10 mg/L; in the data set with Anas platyrhynchos it was 12.1 mg/kg-day; in the data set on Rattus norvegicus (reproduction developmental), 81.8 mg/kg-day. The LC50 in the data set on Colinus virginianus (duration: 5 days, diet) is 394 mg/kg-day; in the data set with Tagia sp. it was more than 60 mg/kg; with Oncorhynchus mykiss it was 79 µg/mL (≈ 332 µM). The NOAEL in the data set with Canidae came out at 3.5 mg/kg-day; in the data set with Rattus norvegicus (acute, oral, gavage, clinical signs) it was 10 mg/kg-day.
